For data set [1], the system named is A549. Description: Cytotoxicity against human A549 cells by SRB method. It counts as cell-based. To be noted: for IC50: Homo sapiens, A549; for Activity: human, a549. In general terms: Sulforhodamine B stains cellular protein and so reports cell mass.
Data set [2] has as its system P388. Briefly: Cytotoxicity against mouse P388 cells by MTT method. Type of data set: cell-based. To be noted: for IC50: Mus musculus, P388; for Activity: mouse, p388.

This note sets out measurements from ChEMBL document CHEMBL1142113, “Limonoids from the seeds of the marine mangrove Xylocarpus granatum” (J Nat Prod, 2007).

As a reminder, the IC50 is the concentration at which inhibition is half-maximal. Low readings indicate greater potency, high ones weaker potency.

Take `CCC(C)C(=O)O[C@@H]1C([C@@H](OC(C)=O)[C@@]2(O)C(=O)CC[C@]3(C)C2=CC(=O)O[C@H]3c2ccoc2)C(=O)[C@H](C)[C@@H](CC(=O)OC)C1(C)C` (stereo partly specified) [GRANAXYLOCARPIN A]: the IC50 was above 10 µM in data set [1] and 9.3 µM in data set [2].
In the case of `C/C=C(\C)C(=O)O[C@H](C1=CC(C)(C)[C@H](CC(=O)OC)[C@@H](C)C1=O)[C@@]1(O)C(=O)CC[C@]2(C)C1=CC(=O)O[C@H]2c1ccoc1` [GRANAXYLOCARPIN B], the IC50 in data set [1] is above 10 µM; in data set [2] it was 4.9 µM.
As for `C/C=C(\C)C(=O)O[C@@H]1[C@@H]2[C@H]3O[C@@]34[C@H](CC[C@@]3(C)[C@H](c5ccoc5)OC(=O)C[C@@]43O)[C@]3(C)[C@@H](CC(=O)OC)[C@]1(C)CO[C@]23O` [GRANAXYLOCARPIN C], the Activity entry in data set [1] and in data set [2] was “Not Active” in each case.
For `COC(=O)[C@H](O)[C@H]1[C@]2(C)C[C@]3(OC(C)=O)[C@H]([C@H]2OC(C)=O)[C@@H](OC(C)=O)[C@]2(O)[C@@H]4CC(=O)O[C@@H](c5ccoc5)[C@]4(C)[C@@H](OC(C)=O)C[C@@H]2[C@]13C` [GRANAXYLOCARPIN D], the Activity entry in data set [1] and in data set [2] was “Not Active” throughout.
As to `COC(=O)[C@H](OC(C)=O)[C@H]1[C@]2(C)C[C@]3(OC(C)=O)[C@H]([C@H]2OC(C)=O)[C@@H](OC(C)=O)[C@]2(O)[C@@H]4CC(=O)O[C@@H](c5ccoc5)[C@]4(C)CC[C@@H]2[C@]13C` [GRANAXYLOCARPIN E], the Activity result in data set [1] and in data set [2] was “Not Active” in each case.
In the case of `COC(=O)C1=CC[C@@]23CC[C@@H]([C@@](C)(/C=C/C=C(\C)C(=O)O)OC2=O)[C@@]3(OC(C)=O)CC1` [PSEUDOLARIC ACID B], in data set [2], half-maximal inhibition (IC50) was put at 0.74 µM. This lies in the sub-micromolar range.
